Our source for the IC50 values is US20220274979A1 (Bayer Pharma Aktiengesellschaft, priority 2018, published 2022).

Each structure is given as a SMILES string.

The target in the assay is T1, Epidermal Growth Factor Receptor (EGFR) (Homo sapiens, UniProt P00533).
T1 construct: purchased Sigma-Aldrich E3641
T1 sequence (P00533 25-1210): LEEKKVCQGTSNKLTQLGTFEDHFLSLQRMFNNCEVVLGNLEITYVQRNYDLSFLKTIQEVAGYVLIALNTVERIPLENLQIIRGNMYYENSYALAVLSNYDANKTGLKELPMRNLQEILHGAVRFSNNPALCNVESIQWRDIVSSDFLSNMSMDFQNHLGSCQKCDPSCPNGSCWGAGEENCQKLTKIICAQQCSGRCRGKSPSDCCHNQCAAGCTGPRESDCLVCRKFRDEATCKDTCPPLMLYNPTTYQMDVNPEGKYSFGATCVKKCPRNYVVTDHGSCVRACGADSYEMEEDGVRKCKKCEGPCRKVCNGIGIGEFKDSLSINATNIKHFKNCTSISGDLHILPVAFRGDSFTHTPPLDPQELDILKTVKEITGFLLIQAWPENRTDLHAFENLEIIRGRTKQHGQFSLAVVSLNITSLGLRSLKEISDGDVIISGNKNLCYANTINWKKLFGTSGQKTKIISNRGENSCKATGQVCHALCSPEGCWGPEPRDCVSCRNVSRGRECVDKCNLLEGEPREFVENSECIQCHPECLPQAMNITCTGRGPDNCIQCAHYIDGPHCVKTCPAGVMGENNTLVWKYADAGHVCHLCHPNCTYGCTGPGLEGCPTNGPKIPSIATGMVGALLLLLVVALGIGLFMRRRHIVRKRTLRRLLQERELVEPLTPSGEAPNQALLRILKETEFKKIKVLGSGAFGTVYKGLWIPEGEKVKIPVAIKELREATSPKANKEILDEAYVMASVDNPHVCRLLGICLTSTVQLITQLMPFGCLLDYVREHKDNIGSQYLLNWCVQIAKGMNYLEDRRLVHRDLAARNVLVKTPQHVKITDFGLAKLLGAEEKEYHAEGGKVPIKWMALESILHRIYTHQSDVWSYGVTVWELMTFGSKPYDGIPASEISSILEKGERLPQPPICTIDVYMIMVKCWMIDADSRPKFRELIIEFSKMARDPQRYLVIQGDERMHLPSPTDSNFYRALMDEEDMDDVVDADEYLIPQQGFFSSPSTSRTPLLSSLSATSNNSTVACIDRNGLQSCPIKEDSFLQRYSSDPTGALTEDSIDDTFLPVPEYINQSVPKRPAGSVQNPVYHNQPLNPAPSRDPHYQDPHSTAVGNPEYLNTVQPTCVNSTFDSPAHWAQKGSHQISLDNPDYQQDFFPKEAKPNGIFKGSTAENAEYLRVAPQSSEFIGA
In words: EGFR kinase assay (TR-FRET). It is filed as biochemical. The settings on record: 10 μM ATP; read-out: EGFR kinase inhibition IC50. The method in brief: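 EGFR purified from A431 cells pre-incubated 15 min with compound, then reacted 20 min at 22 °C with 10 μM ATP and 1 μM biotinylated peptide (final) in HEPES pH 7.0 with Mg2+/Mn2+. Phosphopeptide detected by TR-FRET (Tb anti-phosphotyrosine/streptavidin-XL665), 665/620 nm emission ratio.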
`Cc1nc(NC(C)c2ccc(-c3ccccc3CN(C)C)s2)c2cc(OCCCO)ncc2n1` (stereo not drawn) [Example 76, 3-[(4-{[1-(5-{2-[(dimethylamino)methyl]phenyl}thiophen-2-yl)ethyl]amino}-2-methylpyrido[3,4-d]pyrimidin-6-yl)oxy]propan-1-ol]: the IC50 is over 20 µM.

As for `Cc1nc(NC(C)c2ccc(-c3ccccc3CN(C)C)s2)c2cc(OC3CCS(=N)(=O)CC3)ncc2n1` (stereo not drawn) [Example 77, N-[1-(5-{2-[(dimethylamino)methyl]phenyl}-2-thienyl)ethyl]-6-[(1-imino-1-oxidohexahydro-1lambda4-thiopyran-4-yl)oxy]-2-methylpyrido[3,4-d]pyrimidin-4-amine], the IC50 was over 20 µM.

For `Cc1nc(N[C@H](C)c2cccc(Br)c2)c2cc(OCCN(C)C)ncc2n1` [Example 78, N-[(1R)-1-(3-bromophenyl)ethyl]-6-[2-(dimethylamino)ethoxy]-2-methylpyrido[3,4-d]pyrimidin-4-amine], the IC50 was over 20 µM.

Regarding `Cc1nc(N[C@H](C)c2cccc(Br)c2)c2cc(NCCS(C)(=O)=O)ncc2n1` [Example 83], the IC50 is over 20 µM.

Regarding `Cc1nc(N[C@H](C)c2cccc(Br)c2)c2cc(NCCn3ccnc3)ncc2n1` [Example 84, N4-[(1R)-1-(3-bromophenyl)ethyl]-N6-[2-(1H-imidazol-1-yl)ethyl]-2-methylpyrido[3,4-d]pyrimidine-4,6-diamine], the IC50 is over 20 µM.

Consider `Cc1nc(NC(C)c2ccc(-c3ccccc3CN(C)C)s2)c2cc(NCC3CCNC(=O)C3)ncc2n1` (stereo not drawn) [Example 86, 4-{[(4-{[1-(5-{2-[(dimethylamino)methyl]phenyl}thiophen-2-yl)ethyl]amino}-2-methylpyrido[3,4-d]pyrimidin-6-yl)amino]methyl}piperidin-2-one], for which the IC50 was over 20 µM.

For the molecule `Cc1nc(NC(C)c2ccc(-c3ccccc3CN(C)C)s2)c2cc(N3CC(NC(=O)CCCn4c(-c5ccccn5)nc(C)c4C)C3)ncc2n1` (stereo not drawn) [Example 87, N-[1-(4-{[1-(5-{2-[(dimethylamino)methyl]phenyl}thiophen-2-yl)ethyl]amino}-2-methylpyrido[3,4-d]pyrimidin-6-yl)azetidin-3-yl]-4-[4,5-dimethyl-2-(pyridin-2-yl)-1H-imidazol-1-yl]butanamide], the IC50 is over 20 µM.

Consider `Cc1nc(NC(C)c2ccc(-c3ccccc3CN(C)C)s2)c2cc(N3CC(NC(=O)c4ccccc4)C3)ncc2n1` (stereo not drawn) [Example 88, N-[1-(4-{[1-(5-{2-[(dimethylamino)methyl]phenyl}thiophen-2-yl)ethyl]amino}-2-methylpyrido[3,4-d]pyrimidin-6-yl)azetidin-3-yl]benzamide], for which the 50% inhibitory concentration (IC50) was over 20 µM.

On to `Cc1nc(NC(C)c2ccc(-c3ccccc3CN(C)C)s2)c2cc(N3CC(NC(=O)Cc4ccccc4)C3)ncc2n1` (stereo not drawn) [Example 89, N-[1-(4-{[1-(5-{2-[(dimethylamino)methyl]phenyl}thiophen-2-yl)ethyl]amino}-2-methylpyrido[3,4-d]pyrimidin-6-yl)azetidin-3-yl]-2-phenylacetamide], for which the IC50 was over 20 µM.

On to `Cc1nc(NC(C)c2ccc(-c3ccccc3CN(C)C)s2)c2cc(N3CC(NC(=O)C4CCCCC4)C3)ncc2n1` (stereo not drawn) [Example 90, N-[1-(4-{[1-(5-{2-[(dimethylamino)methyl]phenyl}thiophen-2-yl)ethyl]amino}-2-methylpyrido[3,4-d]pyrimidin-6-yl)azetidin-3-yl]cyclohexanecarboxamide], for which the IC50 was over 20 µM.

With `Cc1nc(NC(C)c2ccc(-c3ccccc3CN(C)C)s2)c2cc(N3CC(NC(=O)CC4CC4)C3)ncc2n1` (stereo not drawn) [Example 91, 2-cyclopropyl-N-[1-(4-{[1-(5-{2-[(dimethylamino)methyl]phenyl}thiophen-2-yl)ethyl]amino}-2-methylpyrido[3,4-d]pyrimidin-6-yl)azetidin-3-yl]acetamide], the concentration for half-maximal inhibition (IC50) was over 20 µM.

With `Cc1nc(NC(C)c2ccc(-c3ccccc3CN(C)C)s2)c2cc(N3CC(N)C3)ncc2n1` (stereo not drawn) [Example 93, 6-(3-aminoazetidin-1-yl)-N-[1-(5-{2-[(dimethylamino)methyl]phenyl}thiophen-2-yl)ethyl]-2-methylpyrido[3,4-d]pyrimidin-4-amine], the IC50 is over 20 µM.

As for `Cc1nc(NC(C)c2ccc(-c3ccccc3CN(C)C)s2)c2cc(N3CC(NS(=O)(=O)c4ccccc4)C3)ncc2n1` (stereo not drawn) [Example 94, N-[1-(4-{[1-(5-{2-[(dimethylamino)methyl]phenyl}thiophen-2-yl)ethyl]amino}-2-methylpyrido[3,4-d]pyrimidin-6-yl)azetidin-3-yl]benzenesulfonamide], the IC50 was over 20 µM.

Consider `Cc1nc(NC(C)c2ccc(-c3ccccc3CN(C)C)s2)c2cc(N3CC(NS(=O)(=O)Cc4ccccc4)C3)ncc2n1` (stereo not drawn) [Example 95, N-[1-(4-{[1-(5-{2-[(dimethylamino)methyl]phenyl}thiophen-2-yl)ethyl]amino}-2-methylpyrido[3,4-d]pyrimidin-6-yl)azetidin-3-yl]-1-phenylmethanesulfonamide], for which the IC50 is over 20 µM.

In the case of `Cc1nc(NC(C)c2ccc(-c3ccccc3CN(C)C)s2)c2cc(N3CC(NC(=O)Nc4ccccc4)C3)ncc2n1` (stereo not drawn) [Example 96, 1-[1-(4-{[1-(5-{2-[(dimethylamino)methyl]phenyl}thiophen-2-yl)ethyl]amino}-2-methylpyrido[3,4-d]pyrimidin-6-yl)azetidin-3-yl]-3-phenylurea], the concentration for half-maximal inhibition (IC50) is over 20 µM.

For orientation: IC50 means the concentration that gives 50% inhibition.
